Reference: patent US8802597B2, “Herbicidal pyrimidines” (E I du Pont de Nemours and Company, priority 2003, dated 2014)

Legend:
Assay type in all cases: in vivo
rice (Oryza sativa) [1] = test: Test B flooded paddy test; settings: Flood, 1000 g ai/ha; scale 0 to 100
Outline: (§1)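 Visual injury scoring (0 = no effect, 100 = complete control) versus controls made 13 to 15 days after treatment in the greenhouse. Test species were grown in flooded paddy to the 2-leaf stage: rice, barnyardgrass, umbrella sedge, duck salad.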

[2] = tested on: duck salad (Heteranthera limosa); test: Test B flooded paddy test; settings: Flood, 1000 g ai/ha; scale 0 to 100
Outline: as §1

[3] = tested on: barnyardgrass (Echinochloa crus-galli); test: Test B flooded paddy test; settings: Flood, 1000 g ai/ha; scale 0 (no effect) to 100 (complete control)
Outline: as §1

[4] = tested on: umbrella sedge (Cyperus difformis); test: Test B flooded paddy test; settings: Flood, 1000 g ai/ha; scale 0 to 100
Outline: as §1

[5] = tested on: pigweed (Amaranthus retroflexus); test: Test B pre/postemergence
Outline: (§2)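 Test chemicals in a non-phytotoxic solvent mixture with surfactant were applied preemergence to planted seeds and postemergence to plants 2 to 18 cm tall (1- to 4-leaf stage). After 13 to 15 days in a greenhouse, injury was visually rated against untreated controls on a 0 to 100 scale.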

[6] = tested on: Surinam grass (Brachiaria decumbens); test: Test B pre/postemergence
Outline: as §2

[7] = tested on: crabgrass (Digitaria sanguinalis); test: Test B pre/postemergence
Outline: as §2

[8] = tested on: morningglory (Ipomoea coccinea); test: Test B pre/postemergence
Outline: as §2

[9] = tested on: velvetleaf (Abutilon theophrasti); test: Test B pre/postemergence
Outline: as §2

[10] = tested on: barnyardgrass (Echinochloa crus-galli); test: Test B pre/postemergence
Outline: as §2

corn (Zea mays) = test: Test B pre/postemergence
Outline: as §2

[11] = tested on: wheat (Triticum aestivum); test: Test B pre/postemergence
Outline: as §2

[12] = tested on: lambsquarters (Chenopodium album); test: Test B pre/postemergence
Outline: as §2

[13] = tested on: giant foxtail (Setaria faberii); test: Test B pre/postemergence
Outline: as §2

[14] = tested on: cocklebur (Xanthium strumarium); test: Test B pre/postemergence
Outline: as §2

[15] = tested on: blackgrass (Alopecurus myosuroides); test: Test B postemergence
Outline: as §2

wild oat (Avena fatua) = test: Test B postemergence
Outline: as §2

rice (Oryza sativa) [16] = test: Test C flooded paddy test; settings: Flood, scale 0 to 100
Procedure: (§3) At the same time, plants selected from these crop and weed species and also winter barley (Hordeum vulgare), blackgrass (Alopecurus myosuroides), canarygrass (Phalaris minor), chickweed (Stellaria media), downy brome (Bromus tectorum), green foxtail (Setaria viridis), Italian ryegrass (Lolium multiflorum), wheat (Triticum aestivum), wild oat (Avena fatua) and windgrass (Apera spica-venti) were treated with postemergence applications of some of the test chemicals formulated in the same manner. Plants ranged in height from 2 to 18 cm (1- to 4-leaf stage) for postemergence treatments. Plant species in the flooded paddy test consisted of rice (Oryza sativa), umbrella sedge (Cyperus difformis), duck salad (Heteranthera limosa) and barnyardgrass (Echinochloa crus-galli) grown to the 2-leaf stage for testing. Treated plants and controls were maintained in a greenhouse for 12 to 14 days, after which time all species were compared to controls and visually evaluated. Plant response ratings, summarized in Table C, are based on a scale of 0 to 100 where 0 is no effect and 100 is complete control. A dash (-) response means no test result.

[17] = tested on: duck salad (Heteranthera limosa); test: Test C flooded paddy test; settings: Flood, scale 0 to 100
Procedure: as §3

[18] = tested on: barnyardgrass (Echinochloa crus-galli); test: Test C flooded paddy test; settings: Flood
Procedure: as §3

[19] = tested on: umbrella sedge (Cyperus difformis); test: Test C flooded paddy test; settings: Flood, scale 0 to 100
Procedure: as §3

[20] = Postemergence, 125 g ai/ha, scale 0 to 100 (0 no effect, 100 complete control)
[21] = Postemergence, 500 g ai/ha, scale 0 to 100
[22] = Preemergence, 125 g ai/ha, scale 0 to 100 (0 no effect, 100 complete control)
[23] = Preemergence, 500 g ai/ha, scale 0 to 100 (0 no effect, 100 complete control)
[24] = 125 g ai/ha, scale 0 to 100 (0 no effect, 100 complete control)

## CC(C)OC(=O)c1nc(C2CC2)nc(N)c1Br [Compound 14]
Rice (Oryza sativa) [1]
  Plant response rating, Rice: 20
[2]
  Plant response rating, Ducksalad: 80
[3]
  Plant response rating, Barnyardgrass: 80
[4]
  Plant response rating, Sedge, Umbrella: 50
[5]; [20]
  Pigweed plant response rating: 80
[5]; [21]
  Plant response rating, Pigweed: 90
[5]; [22]
  Plant response rating, Pigweed: 80
[5]; [23]
  Pigweed plant response rating: 90
[6]; [20]
  Surinam Grass plant response rating: 10
[6]; [21]
  Plant response rating, Surinam Grass: 50
[6]; [22]
  Plant response rating, Surinam Grass: 40
[6]; [23]
  Surinam Grass plant response rating: 80
[7]; [20]
  Crabgrass plant response rating: 10
[7]; [21]
  Plant response rating, Crabgrass: 30
[7]; [22]
  Plant response rating, Crabgrass: 10
[7]; [23]
  Crabgrass plant response rating: 80
[8]; [20]
  Morningglory plant response rating: 100
[8]; [21]
  Plant response rating, Morningglory: 100
[8]; [22]
  Plant response rating, Morningglory: 70
[8]; [23]
  Morningglory plant response rating: 100
[9]; [20]
  Velvetleaf plant response rating: 50
[9]; [21]
  Plant response rating, Velvetleaf: 70
[9]; [22]
  Plant response rating, Velvetleaf: 60
[9]; [23]
  Velvetleaf plant response rating: 80
[10]; [20]
  Barnyardgrass plant response rating: 30
[10]; [21]
  Plant response rating, Barnyardgrass: 90
[10]; [22]
  Plant response rating, Barnyardgrass: 10
[10]; [23]
  Barnyardgrass plant response rating: 80
Corn (Zea mays); [20]
  Corn plant response rating: 30
Corn (Zea mays); [21]
  Plant response rating, Corn: 70
Corn (Zea mays); [22]
  Plant response rating, Corn: 0
Corn (Zea mays); [23]
  Corn plant response rating: 70
[11]; [20]
  Wheat plant response rating: 20
[11]; [21]
  Plant response rating, Wheat: 50
[11]; [22]
  Plant response rating, Wheat: 40
[11]; [23]
  Wheat plant response rating: 50
[12]; [20]
  Lambsquarters plant response rating: 100
[12]; [21]
  Plant response rating, Lambsquarters: 100
[12]; [22]
  Plant response rating, Lambsquarters: 90
[12]; [23]
  Lambsquarters plant response rating: 100
[13]; [20]
  Foxtail, Giant plant response rating: 20
[13]; [21]
  Plant response rating, Foxtail, Giant: 50
[13]; [22]
  Plant response rating, Foxtail, Giant: 30
[13]; [23]
  Foxtail, Giant plant response rating: 80
[14]; [20]
  Cocklebur plant response rating: 50
[14]; [21]
  Plant response rating, Cocklebur: 70
[14]; [22]
  Plant response rating, Cocklebur: 60
[14]; [23]
  Cocklebur plant response rating: 80
[15]; [24]
  Blackgrass plant response rating: 30
[15]; 500 g ai/ha, scale 0 to 100
  Plant response rating, Blackgrass: 60
Wild oat (Avena fatua); [24]
  Oat, Wild plant response rating: 20
Wild oat (Avena fatua); 500 g ai/ha, scale 0 to 100
  Plant response rating, Oat, Wild: 70
Rice (Oryza sativa) [16]; 62 g ai/ha
  Plant response rating, Rice: 0
Rice (Oryza sativa) [16]; 125 g ai/ha
  Plant response rating, Rice: 0
Rice (Oryza sativa) [16]; 250 g ai/ha
  Plant response rating, Rice: 0
Rice (Oryza sativa) [16]; 500 g ai/ha
  Plant response rating, Rice: 0
[17]; 62 g ai/ha
  Plant response rating, Ducksalad: 0
[17]; 125 g ai/ha
  Plant response rating, Ducksalad: 40
[17]; 250 g ai/ha
  Plant response rating, Ducksalad: 45
[17]; 500 g ai/ha
  Plant response rating, Ducksalad: 55
[18]; 62 g ai/ha, scale 0 to 100
  Plant response rating, Barnyardgrass: 0
[18]; 125 g ai/ha, scale 0 to 100
  Plant response rating, Barnyardgrass: 0
[18]; 250 g ai/ha, scale 0 to 100
  Plant response rating, Barnyardgrass: 0
[18]; 500 g ai/ha, scale 0 to 100 (0 no effect, 100 complete control)
  Plant response rating, Barnyardgrass: 45
[19]; 62 g ai/ha
  Plant response rating, Sedge, Umbrella: 0
[19]; 125 g ai/ha
  Plant response rating, Sedge, Umbrella: 0
[19]; 250 g ai/ha
  Plant response rating, Sedge, Umbrella: 0
[19]; 500 g ai/ha
  Plant response rating, Sedge, Umbrella: 30
